The text below walks through data of US7834148B2, “Protein phosphorylation imaging systems, methods of making phosphorylation imaging systems, and methods of use thereof” (Stanford University, priority 2006, dated 2010).

One assay has as its system Akt kinase activity. Kind of assay: Akt kinase sensor complemented FL activity, bioluminescence imaging of intact 293T/AS1T and 293T/AS1A stable cells. It counts as cell-based, human. The procedure:
Complemented FL activity at each time point was determined by bioluminescence imaging of intact cells by addition of D-luciferin (FIG. 7a), prior to normalization for protein content (FIG. 7b).
FL activities in intact cells were determined by bioluminescence imaging of intact cells as described above. Cells were lysed in 1% NP40 buffer (Cell Signaling, Beverly, Mass.) for 15 mins on ice followed by centrifugation at 1×10^4 g to remove cell debris. Protein concentrations were determined by Biorad protein Dc assay (Biorad). FL activities were normalized to protein content and then to that of carrier control treated cells and expressed as normalized FL activity±standard error of means (S.E.M.)

Assay [1] has as its system phosphorylated Akt(S^473). Kind of assay: Phosphorylation-specific western blotting of Akt in cell lysates. Particulars: LY 24 hours or perifosine 6 hours. In kind it is cell-based, human. The procedure:
To validate AS1T as a genetically-encoded reporter for indirect imaging of endogenous Akt kinase activity, confirmation needed to be made that inhibition of endogenous Akt phosphorylation/kinase activities by LY and perifosine corresponded to increase in complemented FL activities in 293T/AS1T cells, but not in 293T/AS1A cells. 293T/AS1T and 293T/AS1A cells were treated with perifosine (6 hours), LY (24 hours) and their respective carrier controls. Complemented FL activities were determined by bioluminescence imaging of intact cells while Akt phosphorylation status/kinase activities in cell lysates were determined by phosphorylation-specific western blotting and in vitro kinase assay using purified glycogen synthase kinase 3β (GSK-3β) as the substrate, respectively. In 293T/AS1T cells treated with LY or perifosine, complemented FL activity increased (FIGS. 8a and 8c), while the amount of phosphorylated Akt (FIGS. 8b and 8d, top panels) and phosphorylated GSk-3, (FIGS. 8b and 8d, bottom panel) decreased, relative to carrier control treated cells. […]
To determine the expression of total and phosphorylated Akt in 293T/AS1A and 293T/AS1T, cell lysates from the triplicate wells from the above FL assay were combined and the protein concentrations were re-determined. […]

`CCCCCCCCCCCCCCCCCCOP(=O)([O-])OC1CC[N+](C)(C)CC1` [perifosine]: the “complemented FL activity” value in the assay on Akt kinase activity (293T/AS1T at all time points (6, 12, 24 hours) and concentrations tested, compared to 293T/AS1A, p<0.05) was “dose-dependent increase”. Also, in the assay with Akt kinase activity (293T/AS1T cells), the “time of maximum increase in complemented FL activity” value was 6 h. Moreover, in the assay with Akt kinase activity (293T/AS1T, drug then carrier control, vs carrier control then drug or drug throughout, LY 50 μM 24+24 hours, perifosine 25 μM 6+6 hours), the “complemented FL activity after washout (reversibility)” value is “significantly lower”. In addition, the “amount of phosphorylated Akt” value in assay [1] (293T/AS1A cells) is on record as “decreased”; in assay [1] (293T/AS1T cells, relative to carrier control) it was “decreased”.
